Results as given in US8846659B2 (priority 2010, dated 2014).
Structures can show the parent of a compound that is named as a salt.

Experiments:
[1] = test system: recombinant NL-Rluc virus; test: Inhibition of HIV replication: susceptibility of recombinant NL-Rluc virus to compounds; type: cell-based; conditions: Human immunodeficiency virus 1, read-out: Activity (EC50, 50% effective concentration)
[2] = biological target: HIV integrase (Human immunodeficiency virus type 1 group M subtype B, UniProt P12497); test: HIV-integrase inhibition activity: inhibition of [3H]BMS-641493 binding to enzyme-SPA bead complexes; conditions: competition with [3H]BMS-641493, enzyme-SPA bead complexes; read-out: Activity (Ki toward integrase)
Description: HIV-Integrase Inhibition Activity.
Radiolabeled integrase inhibitor, BMS-641493 was used as a known reference ligand to determine the binding constants towards the integrase enzyme of the compounds described in this invention using a method similar to that described in; Dicker et al. J. Biological Chem. 2007, 282, 31186-31196; Dicker et al. J. Biol. Chem. 2008, 283, 23599-23609 and Dicker et al. Biochemistry 2008, 47, 13481-13488. BMS-641493 is a known active-site binding inhibitor as it can be competed […] for [3H]BMS-641493 were determined from fitting data to a saturation binding curve using Graphpad Prism, V4.01. The Ki measurement toward integrase was made by measuring the inhibition of binding of [3H]BMS-641493 to enzyme-SPA bead complexes in the presence of serial dilutions of the test compounds. The Ki value was determined from the [3H]BMS-641493 Kd and the inhibition binding curve using Graphpad Prism, V4.03.

Row | SMILES | EC50 [1] | Ki [2]
1 | NC12CCC(CC1)Cn1c2nc(-c2ncc(Cc3ccc(F)cc3)[nH]2)c(O)c1=O [Example 1, 10-Amino-2-[4-[(4-fluorophenyl)methyl]-1H-imidazol-2-yl]-7,8,9,10-tetrahydro-3-hydroxy-7,10-ethanopyrimido[1,2-a]azepin-4(6H)-one] | 0.021 µM | –
2 | CN(C)C(=O)C(=O)NC12CCC(CC1)Cn1c2nc(-c2ncc(Cc3ccc(F)cc3)[nH]2)c(O)c1=O [Example 2, N′-(2-(4-(4-Fluorobenzyl)-1H-imidazol-2-yl)-3-hydroxy-4-oxo-6,7,8,9-tetrahydro-7,10-ethanopyrimido[1,2-a]azepin-10(4H)-yl)-N,N-dimethylethanediamide] | 0.005 µM | 0.021 µM
3 | O=C(NC12CCC(CC1)Cn1c2nc(-c2ncc(Cc3ccc(F)cc3)[nH]2)c(O)c1=O)C(=O)N1CCCC1 [Example 3, N-(2-(4-(4-Fluorobenzyl)-1H-imidazol-2-yl)-3-hydroxy-4-oxo-6,7,8,9-tetrahydro-7,10-ethanopyrimido[1,2-a]azepin-10(4H)-yl)-2-oxo-2-(pyrrolidin-1-yl)acetamide] | 0.018 µM | 0.122 µM
4 | Cc1cc(C(=O)NC23CCC(CC2)Cn2c3nc(-c3ncc(Cc4ccc(F)cc4)[nH]3)c(O)c2=O)no1 [Example 4, N-(2-(4-(4-Fluorobenzyl)-1H-imidazol-2-yl)-3-hydroxy-4-oxo-6,7,8,9-tetrahydro-7,10-ethanopyrimido[1,2-a]azepin-10(4H)-yl)-5-methyl-1,2-oxazole-3-carboxamide] | 0.008 µM | 0.021 µM
5 | NC12CCC(CC1)Cn1c2nc(-c2ncc(Cc3ccc(F)cc3)s2)c(O)c1=O [Example 5] | 0.06 µM | 3.88 µM
6 | CN(C)C(=O)C(=O)NC12CCC(CC1)Cn1c2nc(-c2ncc(Cc3ccc(F)cc3)s2)c(O)c1=O [Example 6, N′-(2-(5-(4-Fluorobenzyl)-1,3-thiazol-2-yl)-3-hydroxy-4-oxo-6,7,8,9-tetrahydro-7,10-ethanopyrimido[1,2-a]azepin-10(4H)-yl)-N,N-dimethylethanediamide] | 0.001 µM | 0.4 µM
7 | CN(C)C(=O)C(=O)NC12CCC(CC1)Cn1c2nc(-c2nnc(Cc3ccc(F)cc3)o2)c(O)c1=O [Example 7, N′-(2-(5-(4-Fluorobenzyl)-1,3,4-oxadiazol-2-yl)-3-hydroxy-4-oxo-6,7,8,9-tetrahydro-7,10-ethanopyrimido[1,2-a]azepin-10(4H)-yl)-N,N-dimethylethanediamide] | 0.002 µM | 0.222 µM
8 | CN(C)C(=O)C(=O)NC12CCC(CC1)Cn1c2nc(-c2ncc(Cc3ccc(F)cc3)o2)c(O)c1=O [Example 8, N′-(4-(5-(4-Fluorobenzyl)-1,3-oxazol-2-yl)-3-hydroxy-4-oxo-6,7,8,9-tetrahydro-7,10-ethanopyrimido[1,2-a]azepin-10(4H)-yl)-N,N-dimethylethanediamide] | 0.0004 µM | 0.115 µM
9 | CN(C)C(=O)C(=O)NC12CCC(CC1)Cn1c2nc(-c2ncn(Cc3ccc(F)cc3)n2)c(O)c1=O [Example 9, N′-[2-[1-[(4-Fluorophenyl)methyl]-1H-1,2,4-triazol-3-yl]-6,7,8,9-tetrahydro-3-hydroxy-4-oxo-7,10-ethanopyrimido[1,2-a]azepin-10(4H)-yl]-N,N-dimethylethanediamide] | – | 1.07 µM
10 | Cc1cc(Cc2cnc(-c3nc4n(c(=O)c3O)CC3CCC4(NC(=O)C(=O)N(C)C)CC3)[nH]2)ccc1F [Example 10, N′-[2-[4-[(4-Fluoro-3-methylphenyl)methyl]-1H-imidazol-2-yl]-6,7,8,9-tetrahydro-3-hydroxy-4-oxo-7,10-ethanopyrimido[1,2-a]azepin-10(4H)-yl]-N,N-dimethyl-ethanediamide trifluoroacetate salt] | 0.006 µM | 0.009 µM
11 | Cc1cc(Cc2cnc(-c3nc4n(c(=O)c3O)CC3CCC4(NC(=O)c4cccnc4)CC3)[nH]2)ccc1F [Example 11, N-[2-[4-[(4-Fluoro-3-methylphenyl)methyl]-1H-imidazol-2-yl]-6,7,8,9-tetrahydro-3-hydroxy-4-oxo-7,10-ethanopyrimido[1,2-a]azepin-10(4H)-yl]-3-pyridinecarboxamide trifluoroacetate salt] | 0.024 µM | 0.019 µM
12 | Cc1cc(Cc2cnc(-c3nc4n(c(=O)c3O)CC3CCC4(NC(=O)c4cccnn4)CC3)[nH]2)ccc1F [Example 12, N-[2-[4-[(4-Fluoro-3-methylphenyl)methyl]-1H-imidazol-2-yl]-6,7,8,9-tetrahydro-3-hydroxy-4-oxo-7,10-ethanopyrimido[1,2-a]azepin-10(4H)-yl]-3-pyridazinecarboxamide trifluoroacetate salt] | 0.008 µM | 0.013 µM
13 | CN(C)C(=O)C(=O)N(C)C12CCC(CC1)Cn1c2nc(-c2ncc(Cc3ccc(F)cc3)[nH]2)c(O)c1=O [Example 13, N-[2-[4-[(4-Fluorophenyl)methyl]-1H-imidazol-2-yl]-6,7,8,9-tetrahydro-3-hydroxy-4-oxo-7,10-ethanopyrimido[1,2-a]azepin-10(4H)-yl]-N,N′,N′-trimethyl-ethanediamide trifluoroacetate salt] | 0.002 µM | 0.013 µM
14 | Cc1cc(Cc2c[nH]c(-c3nc4n(c(=O)c3O)CC3CCC4(NC(=O)C(C)(C)n4cncn4)CC3)n2)ccc1F [Example 14, N-[2-[4-[(4-Fluoro-3-methylphenyl)methyl]-1H-imidazol-2-yl]-6,7,8,9-tetrahydro-3-hydroxy-4-oxo-7,10-ethanopyrimido[1,2-a]azepin-10(4H)-yl]-alpha,alpha-dimethyl-1H-1,2,4-triazole-1-acetamide trifluoroacetate salt] | 0.007 µM | 0.041 µM
15 | CC(=O)N(C)C1(C(=O)NC23CCC(CC2)Cn2c3nc(-c3ncc(Cc4ccc(F)c(C)c4)[nH]3)c(O)c2=O)CC1 [Example 15, 1-(Acetylmethylamino)-N-[2-[4-[(4-fluoro-3-methylphenyl)methyl]-1H-imidazol-2-yl]-6,7,8,9-tetrahydro-3-hydroxy-4-oxo-7,10-ethanopyrimido[1,2-a]azepin-10(4H)-yl]-cyclopropanecarboxamide trifluoroacetate salt] | 0.053 µM | 0.057 µM
16 | CN(C)C(=O)C(=O)NC12CCC(CC1)Cn1c2nc(-c2nnc(Cc3ccc(F)cc3)s2)c(O)c1=O [Example 16, N′-[2-[5-[(4-Fluorophenyl)methyl]-1,3,4-thiadiazol-2-yl]-6,7,8,9-tetrahydro-3-hydroxy-4-oxo-7,10-ethanopyrimido[1,2-a]azepin-10(4H)-yl]-N,N-dimethylethanediamide] | 0.021 µM | 1.47 µM
17 | Cc1cc(Cc2c[nH]c(-c3nc4n(c(=O)c3O)CC3CCC4(N(C)C(=O)C(=O)N(C)C)CC3)n2)ccc1F [Example 17, N-[2-[4-[(4-Fluoro-3-methylphenyl)methyl]-1H-imidazol-2-yl]-6,7,8,9-tetrahydro-3-hydroxy-4-oxo-7,10-ethanopyrimido[1,2-a]azepin-10(4H)-yl]-N,N′,N′-trimethyl-ethanediamide trifluoroacetate salt] | 0.005 µM | 0.01 µM
18 | Cc1cc(Cc2cnc(-c3nc4n(c(=O)c3O)CC3CCC4(NC(=O)c4ccn(C)n4)CC3)[nH]2)ccc1F [Example 18, N-[2-[4-[(4-Fluoro-3-methylphenyl)methyl]-1H-imidazol-2-yl]-6,7,8,9-tetrahydro-3-hydroxy-4-oxo-7,10-ethanopyrimido[1,2-a]azepin-10(4H)-yl]-1-methyl-1H-pyrazole-3-carboxamide] | 0.005 µM | 0.016 µM
